{
  "source": "patent US6387893B1",
  "about": "“Spirotricyclic substituted azacycloalkane derivatives and uses thereof” (Merck & Co., Inc., priority 1999, dated 2002)",
  "key": {"[1]": {"target": "T1, human alpha 1a adrenergic receptor (Homo sapiens, UniProt P35348)", "T1 sequence (P35348 1-466)": "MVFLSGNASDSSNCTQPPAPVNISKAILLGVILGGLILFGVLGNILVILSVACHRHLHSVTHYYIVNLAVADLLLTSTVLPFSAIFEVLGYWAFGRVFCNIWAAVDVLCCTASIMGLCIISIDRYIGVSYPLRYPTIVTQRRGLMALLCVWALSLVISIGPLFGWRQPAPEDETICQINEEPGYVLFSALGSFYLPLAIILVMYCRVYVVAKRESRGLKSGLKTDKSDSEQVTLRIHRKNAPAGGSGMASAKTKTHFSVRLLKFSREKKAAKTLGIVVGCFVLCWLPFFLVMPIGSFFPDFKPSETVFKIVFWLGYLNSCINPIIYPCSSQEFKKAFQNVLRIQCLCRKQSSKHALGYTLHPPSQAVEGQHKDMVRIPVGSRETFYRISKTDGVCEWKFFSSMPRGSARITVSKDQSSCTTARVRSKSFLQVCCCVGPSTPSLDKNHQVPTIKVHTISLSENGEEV", "experiment": "Screening assay: alpha 1a adrenergic receptor binding ([125I]-HEAT competition)", "conditions": "membranes from stably transfected human alpha 1a cell line (ATCC CRL 11140), 100 pM [125I]-HEAT", "procedure": "Screening Assay: Alpha 1a Adrenergic Receptor Binding\nMembranes prepared from the stably transfected human alpha 1a cell line (ATCC CRL 11140) were used to identify compounds that bind to the human alpha 1a adrenergic receptor. These competition binding reactions (total volume=200 μl) contained 50 mM Tris-HCl pH. 7.4, 5 mM EDTA, 150 mM NaCl, 100 pM [^125I]-HEAT, membranes prepared from the alpha 1a cell line and increasing amounts of unlabeled ligand. Reactions were incubated at room temperature for one hour with shaking. Reactions were filtered onto Whatman GF/C glass fiber filters with a Inotec 96 well cell harvester. Filters were washed three times with ice cold buffer and bound radioactivity was determined (Ki)."}},
  "note": "Where a name gives a salt, the structure may show the parent alone.",
  "data": [
    {"smiles": "O=C(NCCCN1CCC2(CC1)c1ccccc1Oc1ccccc12)N1C(=O)OC[C@@H]1c1ccc(F)c(F)c1", "note": "[Example 35, 1′-{3-[(4S)-(3,4-Difluorophenyl)-2-oxooxazolidin-3-carbonylamino]propyl}spiroxanthene-9,4′-piperidine]", "values": [
      {"measurement": "Ki", "setting": "[1]", "result": "< 0.02", "unit": "µM"},
      {"measurement": "melting point", "result": "138 to 139", "unit": "°C"}
    ]},
    {"smiles": "O=C(NCCCN1CCC2(CC1)c1ccccc1[S+]([O-])c1ccccc12)N1C(=O)OC[C@@H]1c1ccc(F)c(F)c1", "note": "(as salt: HCl) [Example 26, 1′-{3-[(4S)-(3,4-Difluorophenyl)-2-oxooxazolidin-3-carbonylamino]propyl}-(10-oxo-spirothioxanthene-9,4′-piperidine)]", "values": [
      {"measurement": "melting point", "result": "184 to 193", "unit": "°C"}
    ]},
    {"smiles": "COCC1=C(C(=O)OC)C(c2ccc(F)c(F)c2)N(C(=O)NCCCN2CCC3(CC2)c2ccccc2Sc2ccccc23)C(=O)N1", "note": "(centres unmarked) (as salt: HCl)", "values": [
      {"measurement": "melting point", "result": "140 to 170", "unit": "°C"}
    ]},
    {"smiles": "COCC1=C(C(=O)OC)[C@H](c2ccc(F)c(F)c2)N(C(=O)NCCCN2CCC3(CC2)c2ccccc2S(=O)(=O)c2ccccc23)C(=O)N1", "note": "(as salt: HCl) [Example 33, 1,2,3,6-tetrahydro-1-[(10,10-dioxo-spirothioxanthene-9,4′-piperidin-1′-yl)propyl]aminocarbonyl-5-methoxycarbonyl-4-methoxymethyl-6(S)-(3,4-difluorophenyl)-2-oxopyrimidine]", "values": [
      {"measurement": "melting point", "result": "158 to 196", "unit": "°C"}
    ]}
  ]
}
